Patent publication US4303785A, “Antitumor anthracycline antibiotics” (priority 1978, dated 1981)
Converted amounts (≈) assume the structure as drawn. Like-named read-outs stand apart in the source and are kept apart here.

Columns and labels:
[1] = cited from earlier work
L1210 cells [2] = experiment: animal or person; assay type: in vivo, CDF1 mice; conditions: once daily for 10 days; for response vs control in vivo at 0.15 mg/kg: 0.15 mg/kg/day i.p.; for response vs control in vivo at 0.31 mg/kg: 0.31 mg/kg/day i.p.; for response vs control in vivo at 0.625 mg/kg: 0.625 mg/kg/day i.p.; for response vs control in vivo at 1.25 mg/kg: 1.25 mg/kg/day i.p.; for response vs control in vivo at 2.5 mg/kg: 2.5 mg/kg/day i.p.
Protocol: D. Representative compounds of general formula I" were tested against experimental animal tumors as follows: […]
CDF1 mice were administered intraperitoneally (i.p.) with 1×10^5 cells/mouse of L1210 cells. After 24 hours had elapsed since inoculation, the mice were administered the test compounds intraperitoneally once daily for 10 consecutive days and observed for a 45 day period.
The antitumor activity was shown by the prolongation rate of survival day (T/C, %) to the survival day of control mice injected with physiological saline.

[3] = test system: various experimental tumors; conditions: cited from earlier work
L1210 leukemia cells = experiment: Growth inhibitory effect on L1210 cells in culture (Table 4); assay type: cell-based; conditions: for inhibition at 0.1 µg/mL / inhibition at 0.5 µg/mL: Mus musculus, L1210, read-out: Inhibition Rate (growth)
Protocol: For example, L1210 cells (5×10^4 cells/ml.) were inoculated in RPMI 1640 medium (Roswell Park Memorial Institute 1640) containing 20% calf serum and cultivated at 37° C. in the presence of 0.1 and 0.5 μg./ml. of the test compounds in a CO2 incubator.

L1210 cells [4] = experiment: Inhibition of 14C-uridine and 14C-thymidine incorporation (nucleic acid synthesis) in L1210 cells in culture (Table 5); assay type: cell-based; conditions: for IC50: Mus musculus, L1210, 1 h
Protocol: The effect of the tetrahydropyranyl ether derivatives of formula I' on nucleic acid synthesis was examined as follows: […]
1×10^5 cells/ml. of L1210 cells were suspended in RPMI medium containing 10% calf serum, pre-cultivated at 37° C. for 1 to 2 hours in a CO2 incubator and then the test compounds were added to the medium at various concentrations. After 15 min. of incubation, ^14 C-uridine (0.05 μCi/ml.) or ^14 C-thymidine (0.05 μCi/ml.) was added and incubated at 37° C. for 60 min. Trichloroacetic acid (TCA) (10%) was added to the incubation medium to stop the reaction and precipitate the acid-insoluble materials, and then the precipitate was washed three times with 5 to 10% […]. The radioactivity was measured and expressed as 50% inhibition concentration of incorporation.

L1210 leukemia = experiment: Antitumor activity in BDF1 mice inoculated with L1210 leukemia cells (Table 6); assay type: in vivo; conditions: once daily for 10 days
Excerpt: As an example, BDF1 mice were inoculated intraperitoneally with 1×10^6 cells/mouse of L1210 leukemia cells.

Bacillus megaterium APF = experiment: Minimum inhibitory concentration, broth dilution method (Table 3); assay type: cell-based
Excerpt: (§1) To illustrate such activity, minimum inhibitory concentrations (as determined by the broth dilution method) of representative compounds are shown in Table 3.

[5] = test system: Bacillus subtillis NRRLB-558; experiment: as above; assay type: cell-based; conditions: Bacillus subtillis NRRLB-558
Excerpt: as §1

[6] = test system: Corynebacterium bovis 1810; experiment: as above; assay type: cell-based
Excerpt: as §1

Sarcina lutea PCI 1001 = experiment: as above; assay type: cell-based
Excerpt: as §1

[7] = test system: Micrococcus flavus FDA 16; experiment: as above; assay type: cell-based; conditions: Micrococcus flavus FDA 16
Excerpt: as §1

Candida albicans = experiment: as above; assay type: cell-based
Excerpt: as §1

Staph. aureus FDA 209P = experiment: as above; assay type: cell-based
Excerpt: as §1

Staph. aureus Smith = experiment: as above; assay type: cell-based
Excerpt: as §1

[8] = test system: Pseudomonas aeruginosa A3; experiment: as above; assay type: cell-based; conditions: Pseudomonas aeruginosa A3
Excerpt: as §1

[9] = test system: Bacillus cereus ATCC 10702; experiment: as above; assay type: cell-based
Excerpt: as §1

[10] = test system: Mycobacterium smegmatis ATCC 607; experiment: as above; assay type: cell-based
Excerpt: as §1

Escherichia coli NIHJ = experiment: as above; assay type: cell-based
Excerpt: as §1

[11] = test system: NADPH-cytochrome P450 reductase; experiment: Stability on rat hepatic NADPH-cytochrome P450 reductase: 7-deoxyaglycone formed (Table 7); assay type: in vitro ADME; conditions: 25° C., 25 min., nitrogen; substrate 0.1 mM, NADPH 0.2 mM, enzyme 4.6 μg./ml, pH 8.0
Protocol: C. The marked antitumor effects seen from A and B above were confirmed by the stability of the test compounds on the inactivation by hepatic NADPH-cytochrome P450 reductase. Specifically, NADPH-cytochrome P450 reductase purified from rat liver homogenate was incubated with the tetrahydropyranyl ether derivatives of formula I' at 25° C. for 25 min. in nitrogen gas phase, and the incubation product formed, 7-deoxyaglycone, was determined as shown in Table 7.

[12] = Mus musculus, L1210, ip, 1080 h, read-out: Antitumor Activity (T/C, prolongation rate of survival day)
[13] = read-out: 50% Inhibition Concentration of 14C-Thymidine Incorporation
[14] = read-out: 50% Inhibition Concentration of 14C-Uridine Incorporation

| Compound | response vs control in vivo at 0.15 mg/kg (L1210 cells [2]; [12]) | response vs control in vivo at 0.31 mg/kg (L1210 cells [2]; [12]) | response vs control in vivo at 0.625 mg/kg (L1210 cells [2]; [12]) | response vs control in vivo at 1.25 mg/kg (L1210 cells [2]; [12]) | response vs control in vivo at 2.5 mg/kg (L1210 cells [2]; [12]) | antitumor spectrum [3] | inhibition at 0.1 µg/mL (L1210 leukemia cells) | inhibition at 0.5 µg/mL (L1210 leukemia cells) | IC50 (L1210 cells [4]; [13]) | IC50 (L1210 cells [4]; [14]) | Antitumor Activity (T/C, prolongation rate of survival day) (L1210 leukemia; 0.15 mg./kg./day i.p.) | Antitumor Activity (T/C, prolongation rate of survival day) (L1210 leukemia; 0.3 mg./kg./day i.p.) | Antitumor Activity (T/C, prolongation rate of survival day) (L1210 leukemia; 5 mg./kg./day i.p.) | further results |
| --- | --- | --- | --- | --- | --- | --- | --- | --- | --- | --- | --- | --- | --- | --- |
| COc1cccc2c1C(=O)c1c(O)c3c(c(O)c1C2=O)C[C@@](O)(C(C)=O)C[C@@H]3O[C@H]1C[C@H](N)[C@H](O)[C@H](C)O1 [Daunomycin, daunomycin, reference compound] | 118% | 132% | 145% | 191% | 138% | broad antitumor spectrum against various experimental tumors | 68.8% | 72.7% | 0.7 µg/mL (≈ 1.33 µM) | 0.4 µg/mL (≈ 0.758 µM) | – | – | – | side effects in clinical use ([1]; in vivo): severe side effects such as alopecia, leukopenia and cardiotoxicity; Antitumor Activity (T/C, prolongation rate of survival day) (L1210 cells [2]; 5 mg/kg/day i.p.): Tox. |
| COc1cccc2c1C(=O)c1c(O)c3c(c(O)c1C2=O)C[C@@](O)(C(=O)CO)C[C@@H]3O[C@H]1C[C@H](N)[C@H](O)[C@H](C)O1 [Adriamycin, adriamycin, reference compound] | 130% | 147% | 239% | 272% | 351% | broad antitumor spectrum against various experimental tumors | 70.7% | 84.2% | 2.1 µg/mL (≈ 3.86 µM) | 0.5 µg/mL (≈ 0.92 µM) | 128% | 165% | toxic | side effects in clinical use ([1]; clinical antitumor agents): severe side effects such as alopecia, leukopenia and cardiotoxicity; response vs control in vivo at 5 mg/kg (L1210 cells [2]; Mus musculus, L1210, ip, 1080 h, 5 mg/kg/day i.p., read-out: Antitumor Activity (T/C, prolongation rate of survival day)): 189% |
| COc1cccc2c1C(=O)c1c(O)c3c(c(O)c1C2=O)C[C@@](O)(C(C)=O)C[C@@H]3O[C@H]1C[C@H](N)[C@H](OC2CCCCO2)[C@H](C)O1 (single isomer, unassigned; isomer b) [4'-O-PDb, 4'-O-tetrahydropyranyl daunomycin (isomer b)] | – | – | – | – | – | – | – | – | – | – | 90% | 103% | > 320% | Minimum Inhibitory Concentration (MIC) (Bacillus megaterium APF): 3.12 µg/mL; Minimum Inhibitory Concentration (MIC) [5]: 1.56 µg/mL; Minimum Inhibitory Concentration (MIC) [6]: 0.78 µg/mL; Minimum Inhibitory Concentration (MIC) (Sarcina lutea PCI 1001): 0.39 µg/mL; Minimum Inhibitory Concentration (MIC) [7]: 1.56 µg/mL; Minimum Inhibitory Concentration (MIC) (Candida albicans): 25 µg/mL; Minimum Inhibitory Concentration (MIC) (Staph. aureus FDA 209P): 6.25 µg/mL; Minimum Inhibitory Concentration (MIC) (Staph. aureus Smith): 3.12 µg/mL; Minimum Inhibitory Concentration (MIC) [8]: > 50 µg/mL; Minimum Inhibitory Concentration (MIC) [9]: 6.25 µg/mL; Minimum Inhibitory Concentration (MIC) [10]: 6.25 µg/mL; Minimum Inhibitory Concentration (MIC) (Escherichia coli NIHJ): > 100 µg/mL; Product (7-Deoxyaglycone) [11]: 46.6 nmoles/tube; Antitumor Activity (T/C, prolongation rate of survival day) (L1210 leukemia; 0.6 mg./kg./day i.p.): 115%; Antitumor Activity (T/C, prolongation rate of survival day) (L1210 leukemia; 1.25 mg./kg./day i.p.): 122%; Antitumor Activity (T/C, prolongation rate of survival day) (L1210 leukemia; 2.5 mg./kg./day i.p.): 256%; Inhibition Rate (growth) (L1210 leukemia cells; 0.1 μg./ml.): 74.6%; Inhibition Rate (growth) (L1210 leukemia cells; 0.5 μg./ml.): 88.8%; 50% Inhibition Concentration of 14C-Thymidine Incorporation (L1210 cells [4]; thymidine, 60 min. at 37° C.): 0.32 µg/mL; 50% Inhibition Concentration of 14C-Uridine Incorporation (L1210 cells [4]; uridine, 60 min. at 37° C.): 0.20 µg/mL |
